According to patent US10174013B2, “Benzimidazole derivatives as kinase inhibitors” (SELVITA S.A., priority 2012, dated 2019):
Read-outs that look alike come from different tables or passages of the source.

Experiments:
FLT3wt = FLT3wt (Homo sapiens (Human), UniProt P36888); assay: ADP-Glo Kinase Assay, Flt3 wt; assay type: biochemical; conditions: 1 μM compound; for inhibition at 1 µM: read-out: Flt3wt % INH (1 μM)
Outline: (§1)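 Compounds were diluted in assay buffer to 1000 nM and incubated with kinase, substrate and ATP at apparent Km. Remaining ATP was depleted, ADP converted to ATP and detected by luciferase; percent inhibition came from normalized luminescence.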

HEL92 cells = assay: Growth inhibition, MTS assay, HEL92; assay type: cell-based, Human; conditions: MTS cell viability, read-out: HEL92 ED50
MV4-11 cells = assay: Growth inhibition, MTS assay, MV4-11; assay type: cell-based, Human; conditions: MTS cell viability, read-out: MV4-11 ED50
Pim-1 = Pim-1 (Homo sapiens (Human), UniProt P11309); assay: ADP-Glo Kinase Assay, Pim-1; assay type: biochemical; conditions: 1 μM compound; for inhibition at 1 µM: read-out: Pim-1 % INH (1 μM)
Chain of Pim-1 (P11309 whole entry): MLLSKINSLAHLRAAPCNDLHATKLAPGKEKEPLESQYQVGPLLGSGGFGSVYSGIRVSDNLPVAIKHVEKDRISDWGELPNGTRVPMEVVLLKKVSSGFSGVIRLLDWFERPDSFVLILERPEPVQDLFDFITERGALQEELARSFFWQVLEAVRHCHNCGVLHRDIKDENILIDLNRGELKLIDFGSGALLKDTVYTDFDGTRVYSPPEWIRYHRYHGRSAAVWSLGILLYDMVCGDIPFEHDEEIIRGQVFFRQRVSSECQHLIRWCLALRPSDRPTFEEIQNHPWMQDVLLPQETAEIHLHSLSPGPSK
Outline: as §1

HepG2 cells = assay: Growth inhibition, MTS assay, HepG2; assay type: cell-based, Human; conditions: MTS cell viability, read-out: HepG2 ED50
Pim-3 = Pim-3 (Homo sapiens (Human), UniProt Q86V86); assay: ADP-Glo Kinase Assay, Pim-3; assay type: biochemical; conditions: 1 μM compound; for inhibition at 1 µM: read-out: Pim-3 % INH (1 μM)
Outline: as §1

CYP3A4 = CYP3A4 (Homo sapiens (Human), UniProt P08684); assay: Cytochrome P450 inhibition, fluorescence, CYP3A4; assay type: in vitro ADME; conditions: recombinant CYP3A4, fluorescence detection; read-out: CYP inhibition (CYP 3A4 screening, IC50 class)
Chain of CYP3A4 (P08684 whole entry, canonical isoform): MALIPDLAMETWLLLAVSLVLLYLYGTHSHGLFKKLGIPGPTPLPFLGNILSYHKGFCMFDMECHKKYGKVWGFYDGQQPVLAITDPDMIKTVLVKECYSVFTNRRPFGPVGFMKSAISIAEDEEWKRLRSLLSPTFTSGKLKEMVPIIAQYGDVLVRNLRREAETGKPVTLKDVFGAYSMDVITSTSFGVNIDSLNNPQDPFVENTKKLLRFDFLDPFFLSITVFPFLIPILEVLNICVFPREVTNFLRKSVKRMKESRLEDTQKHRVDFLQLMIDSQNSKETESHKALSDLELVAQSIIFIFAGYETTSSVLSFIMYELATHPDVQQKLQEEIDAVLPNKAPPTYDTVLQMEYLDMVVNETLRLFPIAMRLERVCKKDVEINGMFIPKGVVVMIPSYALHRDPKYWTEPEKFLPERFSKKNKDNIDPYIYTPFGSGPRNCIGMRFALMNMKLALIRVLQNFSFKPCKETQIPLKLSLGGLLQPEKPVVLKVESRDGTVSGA
Experimental: The assays for cytochrome P450 inhibition facilitate the identification of drug candidates with lower potential for drug-drug interactions (weak enzymes inhibitors). In vitro experiments were conducted to determine whether a drug inhibits a specific CYP enzyme. The experiments comprised the incubation of the drug with probe substrates for the CYP enzymes, wherein the following recombinant cytochrome P450 isoforms were employed: CYP1A2, CYP2C8, CYP2C9, CYP2C19, CYP2D6 and CYP3A4, together with various probe substrates enabling fluorescence detection. The protocol uses a single substrate concentration near the apparent Km and multiple compound concentrations.
The assay was performed in 96-well microtiter plates. The row designations were A through H and the column designations were 1 through 12. […] Each compound (see Table 6 for tested compounds) was added to the wells in column 1 and serially diluted to the wells in column 8. Wells 9 and 10 were control wells which contained no test compound (therefore no inhibition-full signal is detected.) The wells in columns 11 and 12 were blanks, where STOP solution was added prior to the addition of the enzyme/substrate mix to the NADPH regenerating system (the only signal present in these wells is background noise.) The assay was conducted in a final volume of 0.2 ml per well.
The stock solutions of the tested compounds were prepared in DMSO at 10 mM concentration. […] After mixing the compounds with solution containing NADPH-cofactors, the mixed plate was preincubated in a 37° C. incubator for at least 10 minutes; next, the fluorescence of compounds using recommended excitation/emission filters was measured in order to eliminate false results originating from autofluorescence of the compounds. In the following step, the enzyme/substrate mix was added to columns 1 through 10 and the plates were incubated at 37° C. for specific times depending on the CYP tested (incubation times ranged from 30 to 45 minutes). After adding STOP SOLUTION to all wells and respective enzyme/substrate mix to the wells in columns 11 and 12, the plate was scanned with a fluorescent plate scanner. The excitation/emission filters used for the specific assays are described in the GenTest Screening Kit instruction manual.

MOLM13 cells = assay: Growth inhibition, MTS assay, MOLM13; assay type: cell-based, Human; conditions: 72 hours, MTS cell viability, read-out: MOLM 13 ED50
Source text: (§2) The following cell lines, were obtained and used in tests as outlined below: • Human myelomonocytic, biphenotypic leukemia MV4-11 cells (harboring a Flt3-ITD mutation); • Human Acute Myeloid Leukemia MOLM16 cells; • Human Acute Myeloid Leukemia MOLM13 cells (harboring a Flt3-ITD mutation); • Human Myeloid Leukemia KG-1 cells; • Human erythroleukemia HEL92 cells; • Human mantle cell lymphoma Jeko-1 cells; • Human hepatocellular carcinoma HepG2 cells; and • Human colon adenocarcinoma SW-480 cells.
(§3) The assays were carried out according to the following protocol, which is described as an example for the MV4-11 cells:
(§4) Ten thousand MV4-11 cells were inoculated into each well of a 96-well microplate (manufactured by Corning Corp.) using Iscove's MDM medium (culture medium) containing 10% fetal calf serum (FCS). The same day, a dimethyl sulfoxide (DMSO) solution of each test compound prepared in a concentration of 10 mmol/L was further diluted with DMSO to the desired concentrations (0.1, 0.5, 1, 2.5, 5 and 10 micromol/L), and the diluted solution was added to each well. The individual wells were further cultured in 5% carbon dioxide at 37° C. for 72 hours. […] Briefly, 10 μl MTS (3-(4,5-Dimethyl-2-thiazolyl)-5-(carboxymethoxyphenyl)-2-(4-sulfophenyl)-2H-tetrazolium was added to each well, and culturing was performed in 5% carbon dioxide at 37° C. for 2 hours. After this incubation and using a microplate spectrophotometer (Synergy 2 multi-mode microplate reader (BioTek)), the absorbance of each well was measured at 490 nm. The value for cells not incubated with a test compound was designated as 100%. By comparing these values with the absorbance difference obtained at the well in which each test compound was added, the cell viability (% viability) after treatment with the test compound was calculated.

Pim-2 = Pim-2 (Homo sapiens (Human), UniProt Q9P1W9); assay: ADP-Glo Kinase Assay, Pim-2; assay type: biochemical; conditions: 1 μM compound; for inhibition at 1 µM: read-out: Pim-2 % INH (1 μM)
Chain of Pim-2 (Q9P1W9 whole entry): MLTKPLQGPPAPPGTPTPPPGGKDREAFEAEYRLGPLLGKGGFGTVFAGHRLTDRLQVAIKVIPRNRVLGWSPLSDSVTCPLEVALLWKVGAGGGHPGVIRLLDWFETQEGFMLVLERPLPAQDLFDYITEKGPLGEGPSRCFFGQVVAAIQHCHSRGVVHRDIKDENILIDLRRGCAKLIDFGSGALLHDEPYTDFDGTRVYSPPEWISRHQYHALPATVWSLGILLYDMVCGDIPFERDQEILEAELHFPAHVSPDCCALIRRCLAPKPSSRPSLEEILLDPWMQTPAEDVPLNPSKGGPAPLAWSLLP
Outline: as §1

CDK2/E = CDK2/E (Homo sapiens (Human), UniProt P24941); assay: ADP-Glo Kinase Assay, CDK2/E; assay type: biochemical; conditions: 1 μM compound; for inhibition at 1 µM: read-out: CDK2/E % INH (1 μM)
Outline: as §1

Jeko-1 cells = assay: Growth inhibition, MTS assay, Jeko-1; assay type: cell-based, Human; conditions: 72 hours, MTS cell viability, read-out: Jeko-1 ED50
hERG potassium channel = hERG potassium channel (Homo sapiens (Human), UniProt Q12809); assay: hERG automated patch clamp assay (QPatch HT)
Chain of hERG potassium channel (Q12809 whole entry): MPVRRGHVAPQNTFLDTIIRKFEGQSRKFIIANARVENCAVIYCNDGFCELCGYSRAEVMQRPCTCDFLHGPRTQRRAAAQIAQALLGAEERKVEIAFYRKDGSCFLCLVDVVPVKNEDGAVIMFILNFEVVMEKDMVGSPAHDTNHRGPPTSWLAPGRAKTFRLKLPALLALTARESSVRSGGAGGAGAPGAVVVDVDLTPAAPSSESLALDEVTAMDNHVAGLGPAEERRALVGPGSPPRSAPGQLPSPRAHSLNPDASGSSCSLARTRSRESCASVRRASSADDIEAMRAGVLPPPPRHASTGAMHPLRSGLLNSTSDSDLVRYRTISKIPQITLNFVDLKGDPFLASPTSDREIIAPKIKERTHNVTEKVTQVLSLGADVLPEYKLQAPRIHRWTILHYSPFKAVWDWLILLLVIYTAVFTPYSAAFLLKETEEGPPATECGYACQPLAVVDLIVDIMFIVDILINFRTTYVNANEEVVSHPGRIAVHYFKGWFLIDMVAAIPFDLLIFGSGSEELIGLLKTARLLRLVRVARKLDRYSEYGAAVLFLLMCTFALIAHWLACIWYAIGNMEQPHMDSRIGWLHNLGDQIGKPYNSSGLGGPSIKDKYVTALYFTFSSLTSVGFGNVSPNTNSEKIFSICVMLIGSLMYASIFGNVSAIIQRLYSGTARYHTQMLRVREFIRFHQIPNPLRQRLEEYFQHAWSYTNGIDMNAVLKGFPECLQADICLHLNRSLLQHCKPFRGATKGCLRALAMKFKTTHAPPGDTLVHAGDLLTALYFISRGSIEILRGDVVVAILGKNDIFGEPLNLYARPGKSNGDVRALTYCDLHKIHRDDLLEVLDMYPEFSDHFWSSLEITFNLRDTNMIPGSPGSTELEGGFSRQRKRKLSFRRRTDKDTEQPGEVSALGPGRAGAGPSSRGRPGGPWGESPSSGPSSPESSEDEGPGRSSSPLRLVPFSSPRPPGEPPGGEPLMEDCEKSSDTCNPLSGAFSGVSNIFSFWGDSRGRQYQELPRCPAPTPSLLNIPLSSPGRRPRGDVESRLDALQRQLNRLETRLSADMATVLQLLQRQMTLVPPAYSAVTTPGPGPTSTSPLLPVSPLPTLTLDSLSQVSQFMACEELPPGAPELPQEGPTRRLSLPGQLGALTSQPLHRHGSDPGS
Outline: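 Automated whole-cell patch clamp of hERG current in mammalian cells at room temperature. Compounds applied at 0.1, 1, 3, 10 and 30 μM, 3 min per concentration, n≥2 cells each.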

DYRK1 = DYRK1 (Homo sapiens (Human), UniProt Q13627); assay: ADP-Glo Kinase Assay, DYRK1; assay type: biochemical; conditions: 1 μM compound; for inhibition at 1 µM: read-out: DYRK1A % INH (1 μM)
Outline: as §1

FLT3-ITD = assay: ADP-Glo Kinase Assay, Flt3 ITD; assay type: biochemical, Human; conditions: 1 μM compound
Experimental: Compounds of the present invention were tested for their inhibitory activity against Pim-1, Pim-2, Pim-3, Flt3 wt, Flt3 ITD, CDK2/E and DYRK1. The testing of the compounds was carried out using the ADP-Glo™ Kinase Assay from Promega Corporation (Madison, Wis., USA).
The ADP-Glo™ Kinase Assay is a luminescent ADP detection assay to measure kinase activity by quantifying the amount of ADP produced during a kinase reaction. The kinase assay is performed in kinase assay buffer (5 mM MOPS, pH 7.5, 5 mM MgCl2, 0.4 mM EDTA, 1.5 mM DTT). Test samples initially dissolved in DMSO at 10 mM were diluted with the assay buffer to 1000 nM. A 30 μL volume/well of a mixture of substrates containing ATP (final ATP concentration in each kinase assay was equal to its apparent ATP Km).
The assay was performed in two steps: first, after the kinase reaction, an equal volume of ADP-Glo™ Reagent was added to terminate the kinase reaction and deplete the remaining ATP. Second, the Kinase Detection Reagent was added to simultaneously convert ADP to ATP and allowed the newly synthesized ATP to be measured using a luciferase/luciferin reaction. The luminescent signal generated was proportional to the ADP concentration produced and was correlated with kinase activity. A microplate spectrophotometer (Synergy 2 multi-mode microplate reader [BioTek]) was used for detecting the luminescence. The data was normalized and the percent of inhibition was obtained according to the following equation: […]

KG-1 cells = assay: Growth inhibition, MTS assay, KG-1; assay type: cell-based, Human; conditions: 72 hours, MTS cell viability
Source text: as §2, §3, §4

MOLM16 cells = assay: Growth inhibition, MTS assay, MOLM16; assay type: cell-based, Human; conditions: Homo sapiens, MOLM16, 72 h, MTS cell viability, read-out: MOLM 16 ED50

Chain of FLT3wt (P36888 27-993): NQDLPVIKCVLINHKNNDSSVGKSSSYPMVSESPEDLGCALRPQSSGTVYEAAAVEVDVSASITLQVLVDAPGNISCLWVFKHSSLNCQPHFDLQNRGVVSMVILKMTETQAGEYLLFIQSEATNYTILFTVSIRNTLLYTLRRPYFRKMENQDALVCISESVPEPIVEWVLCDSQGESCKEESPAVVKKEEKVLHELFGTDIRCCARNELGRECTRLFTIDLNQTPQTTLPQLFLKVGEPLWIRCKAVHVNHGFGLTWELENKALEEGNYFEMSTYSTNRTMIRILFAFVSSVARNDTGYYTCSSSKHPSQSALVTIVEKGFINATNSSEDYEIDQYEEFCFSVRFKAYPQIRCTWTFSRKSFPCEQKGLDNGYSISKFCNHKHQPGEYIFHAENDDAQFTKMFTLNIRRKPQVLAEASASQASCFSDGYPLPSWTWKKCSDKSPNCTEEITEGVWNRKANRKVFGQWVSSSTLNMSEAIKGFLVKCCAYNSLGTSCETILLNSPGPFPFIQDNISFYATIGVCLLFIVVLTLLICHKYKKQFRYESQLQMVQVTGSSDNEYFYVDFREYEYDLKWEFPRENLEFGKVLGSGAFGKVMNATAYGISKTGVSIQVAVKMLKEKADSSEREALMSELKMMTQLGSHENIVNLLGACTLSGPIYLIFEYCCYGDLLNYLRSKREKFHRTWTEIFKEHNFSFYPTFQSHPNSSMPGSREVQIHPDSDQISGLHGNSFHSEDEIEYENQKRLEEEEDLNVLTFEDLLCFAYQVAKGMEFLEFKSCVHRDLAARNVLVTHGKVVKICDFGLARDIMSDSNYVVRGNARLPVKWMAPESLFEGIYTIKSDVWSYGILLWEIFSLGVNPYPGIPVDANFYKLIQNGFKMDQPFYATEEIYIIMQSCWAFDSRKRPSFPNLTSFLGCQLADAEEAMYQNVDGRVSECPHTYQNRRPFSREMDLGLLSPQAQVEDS

| IC50 (CYP3A4) | inhibition at 1 µM (FLT3wt) | IC50 (MV4-11 cells; Homo sapiens, MV4-11, 72 h) | inhibition at 1 µM (Pim-1) | IC50 (HepG2 cells; Homo sapiens, HepG2, 72 h) | inhibition at 1 µM (Pim-3) | inhibition at 1 µM (Pim-2) | inhibition at 1 µM (CDK2/E) | Flt3ITD % INH (1 μM) (FLT3-ITD) | inhibition at 1 µM (DYRK1) | IC50 (MOLM16 cells) | IC50 (MOLM13 cells; Homo sapiens, MOLM-13) | SMILES | IC50 (hERG potassium channel) | KG-1 ED50 (KG-1 cells) | IC50 (HEL92 cells; Homo sapiens, 72 h) | IC50 (Jeko-1 cells; Homo sapiens, JeKo-1) | other results |
| --- | --- | --- | --- | --- | --- | --- | --- | --- | --- | --- | --- | --- | --- | --- | --- | --- | --- |
| 3.3 to 10 µM | < 5% | 2.8 µM | > 95% | 4.7 µM | 79% | 31% | < 5% | 5% | 16% | – | – | CC(C)n1c(NCCOCCN)nc2c([N+](=O)[O-])c(Br)c(Br)cc21 [Example 22J, N-[2-(2-aminoethoxy)ethyl]-5,6-dibromo-4-nitro-1-(propan-2-yl)-1H-1,3-benzodiazol-2-amine] | 11.9 µM | – | – | – | – |
| – | < 5% | 2.3 µM | > 95% | – | 62% | 18% | 7% | – | 20% | 1.1 µM | 6.4 µM | CC(C)n1c(NC2CCC(N)CC2)nc2c(C#N)c(Br)c(Br)cc21 (centres unmarked) [Example 1DY] | – | 1.9 µM | – | 2.8 µM | – |
| – | 8% | 0.8 µM | > 95% | 0.6 µM | – | 54% | 47% | – | 23% | 0.32 µM | 9.9 µM | CCn1c(N2CCC(N)CC2)nc2c(C#N)c(Br)c(Br)cc21 [Example 1DS] | – | 0.2 µM | 5.8 µM | 1.4 µM | – |

Further lines, the compound ahead of its results:

| SMILES | IC50 (CYP3A4) | inhibition at 1 µM (FLT3wt) | IC50 (MV4-11 cells; Homo sapiens, MV4-11, 72 h) | inhibition at 1 µM (Pim-1) | IC50 (HepG2 cells; Homo sapiens, HepG2, 72 h) | inhibition at 1 µM (Pim-3) | inhibition at 1 µM (Pim-2) | inhibition at 1 µM (CDK2/E) | Flt3ITD % INH (1 μM) (FLT3-ITD) | inhibition at 1 µM (DYRK1) | IC50 (MOLM16 cells) | IC50 (MOLM13 cells; Homo sapiens, MOLM-13) | IC50 (hERG potassium channel) | KG-1 ED50 (KG-1 cells) | IC50 (HEL92 cells; Homo sapiens, 72 h) | IC50 (Jeko-1 cells; Homo sapiens, JeKo-1) | other results |
| --- | --- | --- | --- | --- | --- | --- | --- | --- | --- | --- | --- | --- | --- | --- | --- | --- | --- |
| CC(C)n1c(N[C@H]2CCNC2)nc2c([N+](=O)[O-])c(Br)c(Br)cc21 [Example 1BD] | > 10 µM | – | – | – | – | – | – | – | – | – | – | – | 4.34 µM | – | – | – | Flt3wt % INH (1 μM) (FLT3wt): 28%; IC50 (HEL92 cells; 72 hours): 5.5 µM; IC50 (MV4-11 cells; 72 hours): 0.7 µM; Pim-1 % INH (1 μM) (Pim-1): >95%; IC50 (HepG2 cells; 72 hours): 3.3 µM; Pim-3 % INH (1 μM) (Pim-3): 88%; IC50 (MOLM13 cells): 2.1 µM; Pim-2 % INH (1 μM) (Pim-2): 65%; CDK2/E % INH (1 μM) (CDK2/E): <5%; IC50 (Jeko-1 cells): 1.6 µM; DYRK1A % INH (1 μM) (DYRK1): 53% |
| CCn1c(N2CCC[C@H](N)C2)nc2c(C#N)c(Br)c(Br)cc21 [Example 1DQ] | – | < 5% | 0.9 µM | > 95% | 1.4 µM | 86% | 53% | < 5% | – | 38% | 0.1 µM | 2.8 µM | – | 0.5 µM | 7.6 µM | 1.6 µM | – |
| CCn1c(N2CC[C@H](N)C2)nc2c(C#N)c(Br)c(Br)cc21 [Example 1DR] | – | 18% | 1 µM | > 95% | 1.2 µM | 91% | 59% | 28% | 50% | 65% | 0.1 µM | 3.9 µM | – | 0.14 µM | 6.2 µM | 1.3 µM | – |
